This experiment concerns pathogenic form of the prion protein PrP^Sc in prion infected cells (3F4-ScN2a). It counts as cell-based, mouse. The settings on record: for amount of PrP^Sc in prion infected cells: concentration range between 5 and 20 μM (final concentration), three days; for activity of prion propagation (FIG. 5): within concentration range 5 to 20 μM.

Take `Cc1ccc(N)cc1Nc1nccc(-c2cccnc2)n1` [Compound 4, 4-Methyl-N-3-(4-pyridin-3-yl-pyrimidin-2-yl)-benzene-1,3-diamine]: the “amount of PrP^Sc in prion infected cells” value was “significantly reduced” and the “activity of prion propagation (FIG. 5)” value is “inhibit almost completely”.
On the same counts, the results for `Cc1ccc(NC(=O)c2ccc(CCl)cc2)cc1Nc1nccc(-c2cccnc2)n1` [Compound 5, 4-Chloromethyl-N-[4-methyl-3-(4-pyridin-3-yl-pyrimidin-2-ylamino)-phenyl]-benzamide] are “significantly reduced” and “inhibit almost completely”.
As for `O=S(=O)(Nc1cccc(Nc2nccc(-c3ccncc3)n2)c1)c1ccc(Cl)cc1` [Compound 37, 4-Chloro-N-[3-(4-pyridin-4-yl-pyrimidin-2-ylamino)-phenyl]-benzenesulfonamide], the “amount of PrP^Sc in prion infected cells” value is listed as “significantly reduced” and the “activity of prion propagation (FIG. 5)” value is “inhibit almost completely”.

(Values after US20080187575A1 (priority 2004, published 2008).)
